Test results from US20050074879A1, “Antisense oligonucleotide modulation of STAT3 expression” (priority 2000, published 2005).
Oligonucleotides are written 5' to 3', each unit as a sugar letter and its base; * is a phosphorothioate linkage, no mark a phosphodiester; rarer units and linkages stand in square brackets, end groups in braces. Plain capitals give the bases only. e = 2'-O-(2-methoxyethyl) (MOE); [5mC] = 5-methylcytosine; d = 2'-deoxy (DNA)

Tests used:
Assay type in all cases: cell-based
Human STAT3 mRNA [1] = assay: Human STAT3 mRNA dose response in T-24 cells, real-time PCR with PPS 199 (Table 18); conditions: 16 hours, − decrease, + increase relative to untreated control
Source text: The transitional cell bladder carcinoma cell line T-24 was obtained from the American Type Culture Collection (ATCC) (Manassas, Va.). T-24 cells were routinely cultured in complete McCoy's 5A basal media (Gibco/Life Technologies, Gaithersburg, Md.) supplemented with 10% fetal calf serum (Gibco/Life Technologies, Gaithersburg, Md.), penicillin 100 units per mL, and streptomycin 100 micrograms per mL (Gibco/Life Technologies, Gaithersburg, Md.). Cells were routinely passaged by trypsinization and dilution when they reached 90% confluence. Cells were seeded into 96-well plates (Falcon-Primaria #3872) at a density of 7000 cells/well for use in RT-PCR analysis.
Control oligonucleotides used were ISIS 129695 ([…], SEQ ID NO: 391), ISIS 129694 ([…] SEQ ID NO: 392), ISIS 129690 ([…] SEQ ID NO: 393), ISIS 129686 ([…] SEQ ID NO: 394), ISIS 116847 ([…], SEQ ID NO: 395) and ISIS 113529 ([…] SEQ ID NO: 396). These are universal scrambled control oligonucleotides.
(§1) T-24 cells were treated with 18.75, 37.5, 75, or 150 nM of oligonucleotide mixed with 3 ug/mL LIPOFECTIN per 100 nM oligonucleotide as described by other examples herein. Untreated cells served as controls. Following 16 hours of treatment, RNA was prepared from cells for subsequent real-time PCR analysis.
Human STAT3 mRNA expression levels were quantitated by real-time PCR using primer probe set PPS 199 and gene target quantities were normalized using Ribogreen as described in other examples herein. A “−” or “+” designation indicates a decrease or increase of STAT 3 mRNA expression, respectively, relative to untreated control cells.

Human STAT3 mRNA [2] = assay: Human STAT3 mRNA dose response in T-24 cells, real-time PCR with PPS 2033 (Table 19); conditions: 16 hours, − decrease, + increase relative to untreated control
Procedure: The dose-response was repeated in T-24 cells and gene target quantities were measured using a different primer-probe set, called PPS 2033 herein. PPS 2033 comprises probes and primers to human STAT3 were designed to hybridize to a human STAT3 sequence, using published sequence information (incorporated herein as SEQ ID NO: XXX). For PPS 2033 the PCR primers were: forward primer: GAGGCCCGCCCAACA (SEQ ID NO: 397) reverse primer: […] (SEQ ID NO: 398) and the PCR probe was: FAM-CTGCCTAGATCGGC-TAMRA (SEQ ID NO: 399) where FAM is the fluorescent reporter dye and TAMRA is the quencher dye. Gene target quantities obtained by real time RT-PCR are normalized by quantifying total RNA using RiboGreen™ (Molecular Probes, Inc. Eugene, Oreg.). Control oligonucleotides used were ISIS 129695 (SEQ ID NO: 391), ISIS 129694 (SEQ ID NO: 392), ISIS 129690 (SEQ ID NO: 393), ISIS 129686 (SEQ ID NO: 394), ISIS 116847 (SEQ ID NO: 395) and ISIS 113529 (SEQ ID NO: 396).
as §1
Human STAT3 mRNA expression levels were quantitated by real-time PCR using primer probe set PPS 2033 and gene target quantities were normalized using Ribogreen as described in other examples herein. A “−” or “+” designation indicates a decrease or increase of STAT 3 mRNA expression, respectively, relative to untreated control cells.

Human STAT3 mRNA [3] = assay: Inhibition of human STAT3 mRNA levels in A549 cells, 75 nM, real-time PCR (Table 13); conditions: 75 nM oligonucleotide with LIPOFECTIN, real-time PCR PPS 199, percent inhibition relative to untreated control cells, average of 2 experiments
Method in brief: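 A549 cells at 65–75% confluency were transfected in duplicate with 75 nM oligonucleotide plus […] Lipofectin for 4–7 h at 37° C and harvested 16–24 h later. STAT3 mRNA was quantified by real-time RT-PCR with primer-probe set PPS 199 and normalized to RiboGreen total RNA. Inhibition is relative to untreated controls.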

Substance | Percent change of STAT3 expression using PPS 199 (Human STAT3 mRNA [1]; 18.75 nM oligonucleotide) | Percent change of STAT3 expression using PPS 199 (Human STAT3 mRNA [1]; 37.5 nM oligonucleotide) | Percent change of STAT3 expression using PPS 199 (Human STAT3 mRNA [1]; 75 nM oligonucleotide) | Percent change of STAT3 expression using PPS 199 (Human STAT3 mRNA [1]; 150 nM oligonucleotide) | Percent change of STAT3 expression using PPS 2033 (Human STAT3 mRNA [2]; 18.75 nM oligonucleotide) | Percent change of STAT3 expression using PPS 2033 (Human STAT3 mRNA [2]; 37.5 nM oligonucleotide) | Percent change of STAT3 expression using PPS 2033 (Human STAT3 mRNA [2]; 75 nM oligonucleotide) | Percent change of STAT3 expression using PPS 2033 (Human STAT3 mRNA [2]; 150 nM oligonucleotide) | % Inhib (inhibition of human STAT 3 mRNA levels) (Human STAT3 mRNA [3])
106747 (GCCCATGATGATTTCAGCAA; all C 5-methyl, all phosphorothioate, sugars by position not given here; further chemistry not fully specified) [compound 106747] | −37% | −48% | −71% | −84% | −32% | −48% | −62% | −76% | –
113529 (antisense CTCTTACTGTGCTGTGGACA; all phosphorothioate, sugars by position and methylation of C not given here; 2'-MOE wings and deoxy gap) [compound 113529] | +1% | −1% | −11% | −26% | +1% | +12% | −11% | −24% | –
116847 (antisense CTGCTAGCCTCTGGATTTGA; all phosphorothioate, sugars by position and methylation of C not given here; 2'-MOE wings and deoxy gap) [compound 116847] | +7% | +4% | +8% | +5% | +45% | +33% | +22% | −2% | –
129694 (antisense GTACAGTTATGCGCGGTAGA; all phosphorothioate, sugars by position and methylation of C not given here; 2'-MOE wings with deoxy gap) [compound 129694] | +4% | −3% | −4% | −10% | +19% | −1% | +7% | +2% | –
129695 (antisense TTCTACCTCGCGCGATTTAC; all phosphorothioate, sugars by position and methylation of C not given here; 2'-MOE wings with deoxy gap) [compound 129695] | +5% | +2% | +8% | 0% | −4% | +2% | +8% | +3% | –
337247 (antisense eT*eT*eT*eT*eG*d[5mC]*dA*dT*dG*dA*dT*dG*dT*dA*dA*e[5mC]*e[5mC]*eA*e[5mC]*eT) [compound 337247] | −23% | −43% | −62% | −75% | +17% | −21% | −53% | −69% | 87%
337270 (antisense eT*eT*eG*eG*e[5mC]*dT*dT*d[5mC]*dT*d[5mC]*dA*dA*dG*dA*dT*eA*e[5mC]*e[5mC]*eT*eG) [compound 337270] | −29% | −41% | −67% | −87% | −16% | −27% | −67% | −87% | 89%
337276 (antisense e[5mC]*eT*eG*eG*eA*dG*dA*dT*dT*d[5mC]*dT*d[5mC]*dT*dA*d[5mC]*e[5mC]*eA*e[5mC]*eT*eT) [compound 337276] | −40% | −61% | −76% | −81% | −34% | −58% | −75% | −81% | 91%
337284 (antisense e[5mC]*eT*e[5mC]*e[5mC]*eT*dT*dG*dA*d[5mC]*dT*d[5mC]*dT*dT*dG*dA*eG*eG*eG*eT*eT) [compound 337284] | −49% | −64% | −69% | −72% | −49% | −62% | −66% | −68% | 91%
337293 (antisense e[5mC]*eA*eG*e[5mC]*e[5mC]*dA*dG*d[5mC]*dT*d[5mC]*d[5mC]*dT*d[5mC]*dG*dT*e[5mC]*e[5mC]*eG*eT*eG) [compound 337293] | −26% | −49% | −66% | −79% | −26% | −49% | −67% | −79% | 92%
